Test results: patent US20240197724A1, “THERAPEUTIC AGENT FOR GAIT DISTURBANCE” (NIPPON SHINYAKU CO., LTD., priority 2021, published 2024)

Key:
[1] = tested on: FeCl3-induced thrombus in femoral artery; assay: Antithrombotic effect in rat FeCl3-induced thrombus model; format: in vivo; details: male Wistar rats
Protocol: Methylcellulose (METOLOSE, SM-400, Shin-Etsu Chemical Co., Ltd.) was dissolved in distilled water, to prepare a 0.5 w/v% methylcellulose aqueous solution. The 0.5 w/v% methylcellulose aqueous solution was added to the compound A, to prepare a 10 mg/mL suspension of compound A in the 0.5 w/v% methylcellulose aqueous solution. • (b) Beraprost Sodium The 0.5 w/v% methylcellulose aqueous solution was added to beraprost sodium, to prepare a 1.0 mg/mL aqueous solution of beraprost sodium in the 0.5 w/v% methylcellulose aqueous solution. • (c) Cilostazol The 0.5 w/v% methylcellulose aqueous solution was added to cilostazol, to prepare a 150 or 50 mg/mL suspension of cilostazol. Urethane (Wako Pure Chemical Industries, Ltd.) was dissolved in saline (Otsuka Pharmaceutical Factory, Inc.) to prepare a solution of 0.3 g/mL. The urethane saline solution was subcutaneously administered to rats at 4 mL per 1 kg of body weight (1.2 g/kg) to anesthetize them. […] Male Wistar rats aged 9 to 10 weeks were used as rats. The abdomen of the rat was incised to expose the duodenum, and drugs were injected 2 to 3 mm downstream from the vicinity of the gastric-duodenal boundary using a 26G injection needle and syringe. The compound A and beraprost sodium were administered at a dose of 1 mL/kg, and cilostazol was administered at a dose of 2 mL/kg. The skin on the right thigh of the rat was incised to expose the femoral artery, and the vein and nerve were dissected. A parafilm was placed under the dissected femoral artery to completely separate the femoral artery, vein, and nerve. A laser Doppler blood flowmeter (ALF21, Advance) probe was placed on the femoral artery to start measuring the blood flow (mL/min/g). 60 minutes after the administration for the compound A-administered group, 30 minutes after the administration for the beraprost sodium-administered group, and 120 minutes after the administration for the cilostazol-administered group, a filter paper (2 mm×5 mm) impregnated with a 10 w/w% FeCl3 aqueous solution was placed on the femoral artery, and changes in blood flow were measured using a biometric data processing system (FLO-WB, Omega Wave Co., Ltd.) and recorded.

[2] = tested on: ischemic gait disturbance caused by ligation of the iliac artery; assay: Gait improvement in rat ischemic gait disturbance model (iliac artery ligation, treadmill); format: in vivo; details: male Wistar rats, 3 mg/kg orally twice a day for 9 days from one day after surgery; measured 3, 7 and 10 days after surgery; p<0.01 vs control
Protocol: Wistar rats (male, 7 week-old) (available from CHARLES RIVER LABORATORIES JAPAN, INC.) were subjected to gait training using a treadmill (MK-680, available from Muromachi Kikai Co., Ltd.) for three consecutive days-6 days before surgery, 5 days before surgery, and 4 days before surgery. On the day before surgery, the pre-value of the walking distance was measured, the animals were divided into groups, and sham surgery or iliac artery ligation surgery described in i) below was performed. […] Walking time was measured 3 days, 7 days and 10 days after the surgery. Based on the measured walking time, the walking distance was calculated. • i) Method of Iliac Artery Ligation Surgery Rats were anesthetized by intraperitoneal administration of 50 mg/kg pentobarbital sodium (Somnopentyl®, Schering-Plough Animal Health). […] The ligation of the iliac artery was performed by the data manager and this information was not disclosed to the gait tester until the study was completed. • ii) Walking Time Measurement Method The speed of the treadmill belt was increased from 15 m/min to 35 m/min by increments of 5 m/min in each 3 minutes, and the time the rat got on the electrical stimulation plate at the rear end of the belt was recorded as the dropout time. […] After the measurement, the dropout time was recorded in the gait test record. […]

[3] = tested on: gait disturbance in patient with arteriosclerosis obliterans; assay: Improvement of gait disturbance in patients with arteriosclerosis obliterans (placebo-controlled, double-blind study); format: in vivo, human; details: Japanese patients, 0.1 to 1.6 mg twice a day for 24 to 36 weeks
Protocol: As a placebo-controlled, double-blind comparative study, Japanese patients with arteriosclerosis obliterans (selected by resting ABI, or the like) received placebo or selexipag (which is compound A) at 0.1 to 1.6 mg twice a day for 24 to 36 weeks (dose adjustment period: 8 to 20 weeks, dose maintenance period: 16 weeks).

## O=C1CCc2cc(OCCCCc3nnnn3C3CCCCC3)ccc2N1 [cilostazol]
[1]; 150 or 50 mg/mL suspension at 2 mL/kg intraduodenal, 120 minutes before induction
  vascular occlusion time: Neither dose of cilostazol prolonged the occlusion time

## CC(C)N(CCCCOCC(=O)NS(C)(=O)=O)c1cnc(-c2ccccc2)c(-c2ccccc2)n1 [compound A, 2-{4-[N-(5,6-diphenylpyrazine-2-yl)-N-isopropylamino]butyloxy}-N-(methylsulfonyl) acetamide]
[1]; 10 mg/kg intraduodenal, administration 60 minutes before induction, vehicle control about 12 to 15 minutes
  vascular occlusion time: about 22 minutes
[2]
  improvement of gait disturbance (walking distance, FIG. 1): significantly improved gait disturbance
[3]
  improvement of gait disturbance (treadmill, maximum walking time, Gartner method): Improvement of patient's gait disturbance was confirmed

## CC#CCC(C)[C@H](O)/C=C/[C@@H]1[C@H]2c3cccc(CCCC(=O)O)c3O[C@H]2C[C@H]1O (mixture of isomers) [beraprost sodium]
[1]; 0.3 mg/kg intraduodenal, 30 minutes before induction
  vascular occlusion time: not prolonged
[1]; 0.3 mg/kg intraduodenal, observed over time
  reduction in blood pressure: 25%
[1]; 1 mg/kg intraduodenal, administration 30 minutes before induction, vehicle control about 12 to 15 minutes
  vascular occlusion time: about 43 minutes
